Our source for the melting point values is patent publication US7452894B2, “Purine derivatives as purinergic receptor antagonists” (Vernalis Research Limited, priority 2001, dated 2008).

With `C[Si](C)(C)CCOCn1cnc2c(-c3ccco3)nc(Cl)nc21`, the melting point fell in the range of 105.8 to 106.2 °C.

Molecule `C=CCNc1nc(-c2ccco2)c2ncn(COCC[Si](C)(C)C)c2n1` displayed a melting point of 185.5 to 186 °C.

`CNc1nc(-c2ccco2)c2ncn(COCC[Si](C)(C)C)c2n1` came in with a melting point of 160.1 to 160.8 °C.

For `CN(C)c1nc(-c2ccco2)c2ncn(COCC[Si](C)(C)C)c2n1`, the melting point lay within 81.5 to 82.2 °C.

In turn, `C[Si](C)(C)CCOCn1cnc2c(-c3ccco3)nc(NCCO)nc21` gave a melting point of 125.9 to 126.4 °C.

Turning to `COc1nc(-c2ccco2)c2ncn(COCC[Si](C)(C)C)c2n1`, the melting point is 79.6 °C (dec.).

Take `OCCNc1nc(-c2ccco2)c2nc[nH]c2n1` [Example 5, N-(2-Hydroxyethyl)-6-(2-furyl)-1H-purine-2-amine]: the melting point fell in the range of 227.1 to 228.1 °C.

For the molecule `CC(C)(C)OC(=O)n1cnc2c(-c3ccco3)nc(Cl)nc21` [Example 7, tert-Butyl 2-chloro-6-(2-furyl)-9H-purine-9-carboxylate], the melting point is > 305 °C (dec.).

In the case of `Clc1nc(-c2ccco2)c2nc[nH]c2n1` [Example 8, 2-Chloro-6-(2-furyl)-1H-purine], the melting point was > 303 °C (dec.).

In turn, `OC[C@H]1CCCN1c1nc(-c2ccco2)c2nc[nH]c2n1` [Example 9, (2R)-1-(6-(2-Furyl)-1H-purine-2-yl)-2-pyrrolidinemethanol] yielded a melting point of 130.9 to 131.5 °C.

Consider `CSc1nc(-c2ccco2)c2ncn(C(=O)OC(C)(C)C)c2n1` [Example 12, tert-Butyl 6-(2-furyl)-2-methylthio-9H-purine-9carboxylate], for which the melting point fell in the range of 112 to 113 °C.

Molecule `CC(C)(C)OC(=O)n1cnc2c(-c3ccco3)nc(N)nc21` [Example 14, tert-Butyl 2-amino-6-(2-furyl)-9H-purine-9-carboxylate] registered a melting point of 143.2 to 144.1 °C.

`C=CCNc1nc(-c2ccco2)c2nc[nH]c2n1` [Example 17, N-Allyl-6-(2-furyl)-1H-purine-2-amine] yielded a melting point of 158.7 to 160.1 °C.

In the case of `CNc1nc(-c2ccco2)c2nc[nH]c2n1` [Example 18, 6-(2-Furyl)-N-methyl-1H-purine-2-amine], the melting point was 235 to 236 °C (dec.).

`Nc1nc(-c2ccco2)c2ncn(C(=O)NC3CCCCC3)c2n1` [Example 19, 2-Amino-N-cyclohexyl-6-(2-furyl)-9H-purine-9-carboxamide]: the melting point was 177.6 to 178.2 °C.

For the molecule `CC(C)COC(=O)n1cnc2c(-c3ccco3)nc(N)nc21` [Example 20, 2-Methylpropyl 2-amino-6-(2-furyl)-9H-purine-9-carboxylate], the melting point is > 300 °C (dec.).

As to `CC(C)(C)NC(=O)n1cnc2c(-c3ccco3)nc(N)nc21` [Example 21, 2-Amino-N-tert-butyl-6-(2-furyl)-9H-purine-9-carboxamide], the melting point is 295 °C (dec.).

As for `Nc1nc(-c2ccco2)c2ncn(C(=O)Oc3ccccc3)c2n1` [Example 22, Phenyl 2-amino-6-(2-furyl)-9H-purine-9-carboxylate], the melting point was > 300 °C (dec.).

Regarding `O=C(Nc1ccccc1)Nc1nc(-c2ccco2)c2nc[nH]c2n1` [Example 23, N-(6-(2-Furyl)-1H-purine-2-yl)-N'-phenylurea], the melting point was > 330 °C (dec.).

`CCNC(=O)n1cnc2c(-c3ccco3)nc(N)nc21` [Example 24, 2-Amino-N-ethyl-6-(2-furyl)-9H-purine-9-carboxamide]: the melting point was > 280 °C (dec.).

In the case of `CC(C)(C)c1ccc(S(=O)(=O)n2cnc3c(-c4ccco4)nc(N)nc32)cc1` [Example 27, 9-(4-tert-Butylphenylsulphonyl)-6-(2-furyl)-9H-purine-2-amine], the melting point lay within 238.7 to 239.2 °C.

With `Nc1nc(-c2ccco2)c2ncn(C(=O)C3CCCCC3)c2n1` [Example 28, 9-Cyclohexylcarbonyl-6-(2-furyl)-9H-purine-2-amine], the melting point was > 300 °C (dec.).

Regarding `Nc1nc(-c2ccco2)c2ncn(C(=O)N3CCCC3)c2n1` [Example 29, 6-(2-Furyl)-9-(1-pyrrolidinylcarbonyl)-9H-purine-2-amine], the melting point was > 300 °C (dec.).

With `CC(C)NC(=O)n1cnc2c(-c3ccco3)nc(N)nc21` [Example 30, 2-Amino-6-(2-furyl)N-isopropyl-9H-purine-9-carboxamide], the melting point is > 300 °C (dec.).

`O=C(NC1CCCCC1)n1cnc2c(-c3ccco3)nc(Cl)nc21` [Example 31, 2-Chloro-N-cyclohexyl-6-(2-furyl)-9H-purine-9-carboxamide] registered a melting point of 177.4 to 177.8 °C.

In turn, `CC(C)CC(=O)n1cnc2c(-c3ccco3)nc(N)nc21` [Example 33, 6-(2-Furyl)-9-(3-methylbutyryl)-9H-purine-2-amine] returned a melting point of 175.4 to 176.1 °C.

On to `CC(=O)n1cnc2c(-c3ccco3)nc(N)nc21` [Example 34, 9-Acetyl-6-(2-furyl)-9H-purine-2-amine], for which the melting point is > 300 °C (dec.).

Molecule `Cc1ccc(S(=O)(=O)n2cnc3c(-c4ccco4)nc(N(C)C)nc32)cc1` [Example 56, N,N-Dimethyl-6-(2-furyl)-9-(4-methylphenylsulphonyl)-9H-purine-2-amine] displayed a melting point of 212.6 to 213 °C.

In the case of `CCOC(=O)Cn1cnc2c(-c3ccco3)nc(N(C)C)nc21` [Example 71, Ethyl 2-dimethylamino-6-(2-furyl)-9H-purine-9-acetate], the melting point was 180.6 to 181.8 °C.

Take `CCOC(=O)Cn1cnc2c(-c3ccco3)nc(-c3ccco3)nc21` [Example 72, Ethyl 2,6-bis(2-furyl)-9H-purine-9-acetate]: the melting point was 314 °C.

Regarding `Nc1nc(-c2ccco2)c2ncn(CC(=O)O)c2n1` [Example 73, 2-Amino-6-(2-furyl)-9H-purine-9-acetic acid], the melting point was > 300 °C (dec.).

On to `CC(C)(C)OC(=O)n1cnc2c(-c3cccs3)nc(N)nc21` [Example 78, tert-Butyl 2-amino-6-(2-thienyl)-9H-purine-9-carboxylate], for which the melting point is > 250 °C (dec.).

As to `Nc1nc(-c2ccco2)c2ncn(CC(=O)Nc3ccccc3)c2n1` [Example 85, 2-Amino-6-(2-furyl)-N-phenyl-9H-purine-9-acetamide], the melting point fell in the range of 289.1 to 289.7 °C.

On to `Nc1nc(-c2ccco2)c2ncn(CC(=O)NCc3ccccc3)c2n1` [Example 86, 2-Amino-N-benzyl-6-(2-furyl)-9H-purine-9-acetamide], for which the melting point was in the range of 287.2 to 287.8 °C.

The molecule `NC(=O)Cn1cnc2c(-c3ccco3)nc(N)nc21` [Example 87, 2-Amino-6-(2-furyl)-9H-purine-9-acetamide] registered a melting point of 321.5 to 321.6 °C.

The molecule `Nc1nc(-c2ccco2)c2ncn(CC(=O)N3CCCC3)c2n1` [Example 88, 6-(2-Furyl)-9-(2-oxo-2-(1-pyrrolidinyl)ethyl)-9H-purine-2-amine] displayed a melting point of 283.6 to 283.7 °C.

In the case of `CNC(=O)Cn1cnc2c(-c3ccco3)nc(N)nc21` [Example 89, 2-Amino-6-(2-furyl)-N-methyl-9H-purine-9-acetamide], the melting point fell in the range of 290.2 to 291.6 °C.

For `Cc1nc(-c2nc(N)nc3[nH]cnc23)no1` [Example 90, 6-(5-Methyl-[1,2,4]-oxadiazol-3-yl)-1H-purine-2-amine], the melting point is > 200 °C (dec.).

Take `Nc1nc(-c2ccco2)c2ncn(CC(=O)NCCO)c2n1` [Example 96, 2-Amino-6-(2-furyl)-N-(2-hydroxyethyl)-9H-purine-9-acetamide]: the melting point is > 250 °C (dec.).

For `CN1CCN(C(=O)Cn2cnc3c(-c4ccco4)nc(N)nc32)CC1` [Example 97, 6-(2-Furyl)-9-(2-oxo-2-(4-methyl-1-piperazinyl)ethyl)-9H-purine-2-amine], the melting point was > 270 °C (dec.).

`Nc1nc(-c2ccco2)c2ncn(CC(=O)NCc3ccccn3)c2n1` [Example 119, 2-Amino-6-(2-furyl)-N-(2-pyridylmethyl)-9H-purine-9-acetamide] returned a melting point of 238.3 to 238.4 °C.

As to `Nc1nc(-c2cc3ccccc3o2)c2nc[nH]c2n1` [Example 120, 6-(Benzofuran-2-yl)-1H-purine-2-amine], the melting point was in the range of 310 to 310.3 °C.

In turn, `Nc1nc(-c2ccco2)c2ncn(CC(=O)Nc3ccccn3)c2n1` [Example 122, 2-Amino-6-(2-furyl)-N-(2-pyridyl)-9H-purine-9-acetamide] showed a melting point of 242.5 to 243.6 °C.

For `Nc1nc(-c2ccco2)c2ncn(CC(=O)NCCc3ccccc3)c2n1` [Example 123, 2-Amino-6-(2-furyl)-N-(2-phenylethyl)-9H-purine-9-acetamide], the melting point was in the range of 247.3 to 247.4 °C.

With `CCCNC(=O)Cn1cnc2c(-c3ccco3)nc(N)nc21` [Example 124, 2-Amino-6-(2-furyl)-N-n-propyl-9H-purine-9-acetamide], the melting point was 258.7 to 260.1 °C.

Take `Nc1nc(-c2cc3ccccc3o2)c2ncn(C(=O)NCc3ccccc3)c2n1` [Example 128, 2-Amino-6-(benzofuran-2-yl)-N-benzyl-9H-purine-9-carboxamide]: the melting point is > 250 °C (dec.).

Consider `Nc1nc(-c2ccc(Cl)s2)c2ncn(C(=O)NCc3ccccc3)c2n1` [Example 130, 2-Amino-N-benzyl-6-(5-chloro-2-thienyl)-9H-purine-9-carboxamide], for which the melting point is 194 to 195 °C (dec.).

For `Cn1cccc1-c1nc(N)nc2[nH]cnc12` [Example 133, 6-(1-Methyl-1H-pyrrol-2-yl)-1H-purine-2-amine], the melting point was > 240 °C (dec.).

In the case of `Cn1cccc1-c1nc(N)nc2c1ncn2C(=O)NCc1ccccc1` [Example 134, 2-Amino-N-benzyl-6-(1-methyl-1H-pyrrol-2-yl)-9H-purine-9-carboxamide], the melting point is > 230 °C (dec.).

Consider `Nc1nc(-c2cncs2)c2nc[nH]c2n1` [Example 137, 6-(5-Thiazolyl)-1H-purine-2-amine], for which the melting point is 300 °C (dec.).

`Cc1ccccc1NC(=O)Cn1cnc2c(-c3ccco3)nc(N)nc21` [Example 140, 2-Amino-6-(2-furyl)-N-(2-methylphenyl)-9H-purine-9-acetamide] came in with a melting point of 299.2 to 299.3 °C.

A word on the melting point: it is the temperature of the solid-liquid transition.
